Measurements reported in patent US9328106B2, “Cyclic ether pyrazol-4-yl-heterocyclyl-carboxamide compounds and methods of use” (Genentech, Inc., priority 2012, dated 2016).
pEC50, pIC50, pKi: −log10 of the molar value. Where two headings read alike, the source gives them in different places.

Tests used:
BaF3 PIM1 cells = assay: In vitro cell proliferation, BaF3 transfected with PIM1; type: cell-based, murine;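 note: murine IL-3-dependent pro-B BaF3 cells transfected with PIM1, compound exposure overnight at 37 °C under 5% CO2, viability read as luminescence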
Method: (§1) BaF3 parental line was obtained from the DSMZ repository. […] Media for BaF3 parental line contained RPMI, 10% FBS, 2 mM L-Glutamine, 2 ng/mL mIL-3. Media for BaF3 PIM1 & 2 lines contained RPMI, 10% FBS, 2 mM L-Glutamine, 250 μg/mL. Media for MM1.S (multiple myeloma cells) line contained RPMI, 10% FBS, 2 mM L-Glutamine.
(§2) BaF3, a murine interleukin-3 dependent pro-B cell line, parental cells, BaF3 PIM1 cells, BaF3 PIM2 cells, and MM1.S (multiple myeloma) cells were seeded at 2 k/well, 5 k/well, 5 k/well, and 10 k/well respectively, in a 384-well plate, at 45 μL/well. Test compound was added at 5 μL/well. BaF3 cells (parental and transfected) were incubated overnight, while MM1.S cells were incubated for 72 hours at 37° C., 5% CO2. CELL TITER GLO® Reagent (Promega) was added at 50 μL/well, the plates were incubated for 30 minutes, and their luminescence read on an HT Analyst. IC50/EC50 values for the test compound were calculated.

[1] = system: MM1.S (multiple myeloma) cells; assay: In vitro cell proliferation, MM1.S multiple myeloma cells; type: cell-based; details: MM1.S cells, 72 hours, CELL TITER GLO, read-out: Prolif MM1S ATP (EC50);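 note: cells cultured in RPMI with 10% FBS and 2 mM L-Glutamine, seeded in 384-well plates, exposed to compound, cell viability measured by luminescence after CellTiter-Glo addition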
Method: as §1, §2

BaF3 parental cells = assay: In vitro cell proliferation, BaF3 parental line + IL3; type: cell-based, murine; details: mIL-3, incubated overnight, CELL TITER GLO, read-out: Prolif BaF3 IL3 (IC50);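 note: BaF3 parental cells are murine IL-3 dependent pro-B cells grown with 2 ng/mL mIL-3, 384-well format, viability read by luminescence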
PIM1 = PIM1 (Homo sapiens (Human), UniProt P11309); assay: biochemical; type: biochemical; details: 20 pM PIM1, 1 μM FAM-peptide, 10 μM ATP, 90 minutes at room temperature; read-out: PIM1 LC3K (KI)
[2] = Mus musculus, BaF3, read-out: Prolif BaF3 PIM1 (IC50), BaF3 PIM1 cells, incubated overnight, CELL TITER GLO
[3] = Mus musculus, BaF3, BaF3 parental
[4] = read-out: Prolif BaF3 PIM1 (IC50), BaF3 PIM1 cells, incubated overnight, CELL TITER GLO

Sequence of PIM1 (P11309 whole entry): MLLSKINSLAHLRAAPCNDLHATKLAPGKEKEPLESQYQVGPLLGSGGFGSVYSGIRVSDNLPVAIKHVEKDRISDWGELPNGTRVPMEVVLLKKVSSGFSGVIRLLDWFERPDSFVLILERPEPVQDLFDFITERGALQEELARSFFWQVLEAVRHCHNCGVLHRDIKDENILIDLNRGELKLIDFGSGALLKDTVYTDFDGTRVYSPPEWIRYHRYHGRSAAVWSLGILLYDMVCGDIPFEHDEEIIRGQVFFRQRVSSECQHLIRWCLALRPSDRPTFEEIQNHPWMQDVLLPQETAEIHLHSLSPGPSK

Row | SMILES | pIC50 (BaF3 PIM1 cells; [2]) | pEC50 ([1]; Homo sapiens, MM1.S, 72 h) | pIC50 (BaF3 parental cells; [3]) | pKi (PIM1) | pIC50 (BaF3 PIM1 cells; [4]) | pEC50 [1] | pIC50 (BaF3 parental cells; BaF3 parental)
1 | Cn1ncc(NC(=O)c2csc(-c3c(F)ccc(S(C)(=O)=O)c3F)n2)c1[C@@H]1CC[C@@H](N)[C@H](F)CO1 [Example 360, N-[5-[(2S,5R,6S)-5-amino-6-fluoro-oxepan-2-yl]-1-methyl-pyrazol-4-yl]-2-(2,6-difluoro-3-methylsulfonyl-phenyl)thiazole-4-carboxamide] | 4.82 | 5.03 | 4.78 | 8.73 | – | – | –
2 | Cn1ncc(NC(=O)c2nc(-c3ccccc3C(F)(F)F)sc2N)c1[C@@H]1CC[C@@H](N)[C@H](F)CO1 [Example 323, 5-amino-N-(5-((2S,5R,6S)-5-amino-6-fluorooxepan-2-yl)-1-methyl-1H-pyrazol-4-yl)-2-(2-(trifluoromethyl)phenyl)thiazole-4-carboxamide] | 6.73 | 5.00 | < 4.60 | 9.55 | – | – | –
3 | Cn1ncc(NC(=O)c2csc(-c3c(F)cc([C@@H]4CCCO4)cc3F)n2)c1[C@@H]1CC[C@@H](N)[C@H](F)CO1 (single isomer, unassigned) [Example 371] | 6.82 | 5.36 | < 4.60 | 10.24 | – | – | –
4 | Cn1ncc(NC(=O)c2csc(-c3c(F)cccc3F)n2)c1[C@@H]1CC[C@@H](N)[C@H](F)CO1 [Example 321, N-(5-((2S,5R,6S)-5-amino-6-fluorooxepan-2-yl)-1-methyl-1H-pyrazol-4-yl)-2-(2,6-difluorophenyl)thiazole-4-carboxamide] | 7.30 | 6.41 | 5.36 | 10.86 | – | – | –
5 | Cn1ncc(NC(=O)c2csc(-c3cc(=O)n(C)cc3F)n2)c1[C@@H]1CC[C@@H](N)[C@H](F)CO1 [Example 387, N-(5-((2S,5R,6S)-5-amino-6-fluorooxepan-2-yl)-1-methyl-1H-pyrazol-4-yl)-2-(5-fluoro-1-methyl-2-oxo-1,2-dihydropyridin-4-yl)thiazole-4-carboxamide] | 5.49 | 5.70 | 5.09 | 9.02 | – | – | –
6 | Cn1ncc(NC(=O)c2nc(-c3c(F)cccc3F)sc2N)c1C12CCC(O)C(CC1)O2 (single isomer, unassigned) [Example 110, 5-amino-2-(2,6-difluorophenyl)-N-[5-(2-hydroxy-8-oxabicyclo[3.2.1]octan-5-yl)-1-methyl-pyrazol-4-yl]thiazole-4-carboxamide] | – | – | – | 10.77 | 7.35 | 5.62 | 5.03
7 | Cn1ncc(NC(=O)c2csc(-c3c(F)cc(F)cc3F)n2)c1[C@@H]1CC[C@@H](N)[C@H](F)CO1 [Example 364, N-(5-((2S,5R,6S)-5-amino-6-fluorooxepan-2-yl)-1-methyl-1H-pyrazol-4-yl)-2-(2,4,6-trifluorophenyl)thiazole-4-carboxamide] | 6.68 | 5.96 | 4.69 | 10.41 | – | – | –
8 | C[C@H]1O[C@@H](c2c(NC(=O)c3csc(-c4c(F)cccc4F)n3)cnn2C)C[C@@H](N)[C@]1(C)O (single isomer, unassigned) [Example 341] | 7.01 | 5.16 | < 4.60 | 11.52 | – | – | –
9 | Cn1ncc(NC(=O)c2nc(-c3ccccc3F)sc2N)c1[C@@H]1CC[C@@H](N)[C@H](F)CO1 [Example 317, 5-amino-N-(5-((2S,5R,6S)-5-amino-6-fluorooxepan-2-yl)-1-methyl-1H-pyrazol-4-yl)-2-(2-fluorophenyl)thiazole-4-carboxamide] | 7.82 | 7.46 | 5.10 | 11.29 | – | – | –
10 | Cn1ncc(NC(=O)c2nc(-c3c(F)cccc3F)sc2N)c1C12CCC(O)C(CC1)O2 (single isomer, unassigned) [Example 109, 5-amino-2-(2,6-difluorophenyl)-N-[5-(2-hydroxy-8-oxabicyclo[3.2.1]octan-5-yl)-1-methyl-pyrazol-4-yl]thiazole-4-carboxamide] | – | – | 5.08 | 10.47 | 6.94 | 5.04 | –
11 | Cn1ncc(NC(=O)c2nc(-c3ccccc3)sc2N)c1[C@@H]1CC[C@@H](N)[C@H](F)CO1 [Example 320, 5-amino-N-(5-((2S,5R,6S)-5-amino-6-fluorooxepan-2-yl)-1-methyl-1H-pyrazol-4-yl)-2-phenylthiazole-4-carboxamide] | 7.61 | 6.73 | < 4.60 | 10.44 | – | – | –
12 | Cn1ncc(NC(=O)c2csc(-c3c(F)ccc(C4CC4)c3F)n2)c1[C@@H]1CC[C@@H](N)[C@H](F)CO1 [Example 363, N-(5-((2S,5R,6S)-5-amino-6-fluorooxepan-2-yl)-1-methyl-1H-pyrazol-4-yl)-2-(3-cyclopropyl-2,6-difluorophenyl)thiazole-4-carboxamide] | 6.53 | 6.03 | 5.35 | 10.47 | – | – | –
13 | COc1ccc(F)c(-c2nc(C(=O)Nc3cnn(C)c3[C@@H]3CC[C@@H](N)[C@H](OC)CO3)cs2)c1F [Example 368, N-(5-((2S,5R,6S)-5-amino-6-methoxyoxepan-2-yl)-1-methyl-1H-pyrazol-4-yl)-2-(2,6-difluoro-3-methoxyphenyl)thiazole-4-carboxamide] | 7.00 | 5.62 | 5.72 | 10.52 | – | – | –
14 | Cn1ncc(NC(=O)c2nc(-c3c(F)cccc3F)sc2N)c1C1CC[C@H](N)[C@H](F)CO1 (stereo partly drawn) [Example 131, 5-amino-N-(5-((5S,6S)-5-amino-6-fluorooxepan-2-yl)-1-methyl-1H-pyrazol-4-yl)-2-(2,6-difluorophenyl)thiazole-4-carboxamide] | 5.82 | 5.00 | 5.17 | 9.57 | – | – | –
15 | Cn1ncc(NC(=O)c2csc(-c3c(F)cccc3F)n2)c1[C@@H]1CC[C@@H](N)[C@@H](F)CO1 [Example 319, N-(5-((2S,5R,6R)-5-amino-6-fluorooxepan-2-yl)-1-methyl-1H-pyrazol-4-yl)-2-(2,6-difluorophenyl)thiazole-4-carboxamide] | 6.89 | 6.06 | 5.11 | 10.42 | – | – | –
16 | Cn1ncc(NC(=O)c2csc(-c3c(F)ccc(C(F)F)c3F)n2)c1[C@@H]1CC[C@@H](N)[C@H](F)CO1 [Example 377, N-[5-[(2S,5R,6S)-5-amino-6-fluoro-oxepan-2-yl]-1-methyl-pyrazol-4-yl]-2-[3-(difluoromethyl)-2,6-difluoro-phenyl]thiazole-4-carboxamide] | 7.16 | 5.38 | 5.00 | 10.51 | – | – | –
17 | COc1ccc(F)c(-c2nc(C(=O)Nc3cnn(C)c3[C@@H]3CC[C@@H](N)[C@H](F)CO3)cs2)c1 [Example 356, N-(5-((2S,5R,6S)-5-amino-6-fluorooxepan-2-yl)-1-methyl-1H-pyrazol-4-yl)-2-(2-fluoro-5-methoxyphenyl)thiazole-4-carboxamide] | 6.97 | 5.85 | 5.19 | 10.28 | – | – | –
18 | CC[C@@H]1CC(N)CC[C@H](c2c(NC(=O)c3nc(-c4c(F)cccc4F)sc3N)cnn2C)O1 (stereo partly drawn) [Example 112, 5-amino-N-(5-((2R,7R)-5-amino-7-ethyloxepan-2-yl)-1-methyl-1H-pyrazol-4-yl)-2-(2,6-difluorophenyl)thiazole-4-carboxamide] | 5.68 | 5.07 | 5.16 | 9.30 | – | – | –
19 | CO[C@@H]1CO[C@H](c2c(NC(=O)c3csc(-c4c(F)cc(C)cc4F)n3)cnn2C)CC[C@H]1N [Example 355, N-(5-((2S,5R,6S)-5-amino-6-methoxyoxepan-2-yl)-1-methyl-1H-pyrazol-4-yl)-2-(2,6-difluoro-4-methylphenyl)thiazole-4-carboxamide] | 7.27 | 5.80 | 5.41 | 10.46 | – | – | –
20 | Cn1ncc(NC(=O)c2nc(-c3c(F)cccc3Cl)sc2N)c1[C@@H]1CC[C@@H](N)[C@H](F)CO1 [Example 328, 5-amino-N-(5-((2S,5R,6S)-5-amino-6-fluorooxepan-2-yl)-1-methyl-1H-pyrazol-4-yl)-2-(2-chloro-6-fluorophenyl)thiazole-4-carboxamide] | 7.67 | 5.82 | 4.90 | 10.44 | – | – | –
21 | Cn1ncc(NC(=O)c2csc(-c3cc[nH]n3)n2)c1[C@@H]1CC[C@@H](N)[C@H](F)CO1 [Example 379, N-[5-[(2S,5R,6S)-5-amino-6-fluoro-oxepan-2-yl]-1-methyl-pyrazol-4-yl]-2-(1H-pyrazol-3-yl)thiazole-4-carboxamide] | 6.01 | 5.54 | < 4.60 | 9.89 | – | – | –
22 | Cc1cccc(-c2nc(C(=O)Nc3cnn(C)c3[C@@H]3CC[C@@H](N)[C@H](F)CO3)cs2)c1F [Example 361, N-[5-[(2S,5R,6S)-5-amino-6-fluoro-oxepan-2-yl]-1-methyl-pyrazol-4-yl]-2-(2-fluoro-3-methyl-phenyl)thiazole-4-carboxamide] | 6.60 | 6.34 | 5.55 | 10.17 | – | – | –
23 | Cn1ncc(NC(=O)c2ccc(F)c(-c3ccc(Cl)cc3F)n2)c1[C@@H]1CC[C@@H](N)[C@H](F)CO1 [Example 359, N-(5-((2S,5R,6S)-5-amino-6-fluorooxepan-2-yl)-1-methyl-1H-pyrazol-4-yl)-6-(4-chloro-2-fluorophenyl)-5-fluoropicolinamide] | 6.58 | 5.24 | 4.94 | 11.15 | – | – | –
